Blank lines part the entries; values can stand above or below the compound they belong to.
How the values were obtained:
DNA polymerase [1] = conditions: single base incorporation; overnight, ambient temperature; FIG. 4
Description: Sequencing reactions performed on bulk Si/SiO2 surfaces using both 3′ and 5′ surface tethered 30mer DNA, immobilised onto APDMES/PDC modified Si/SiO2 surface in the typical 4×4 array format. Here, Cy3 labelled dCTP was selectively incorporated to a hybridised primer using the covalently bound 30mer probe as a template. The reaction mix was spread over the silicon surface and incubated overnight in a dark humid chamber at ambient temperature. The silicon was then rinsed in 1× Thermopol buffer and dried using a nitrogen line. Fluorescence was visualised using an Olympus BX60 and imaged using Axio vision camera and Axiovision 3.1 software.
It should be noted that each spot would contain a number of DNA strands where the primer extension has taken place and therefore the florescence observed is due to several Cy3 dCTP's not just one base.

[2] = Photocleavage by irradiation with a mercury lamp, followed by LCMS; type: physicochemical; conditions: methanol and water, approximately 250 nm
Description: For illustrative purpose, initial testing of 3-(hydroxymethyl)naphthalen-2-ol derivative was carried out. The molecule was dissolved in a mixture of methanol and water, and was then irradiated for 90 min with light from a mercury lamp, which emits light with a wavelength of approximately 250 nm. […] After a further 90 min, there was approximately 20% starting material remaining.
In the experiments illustrated in FIG. 2, the molecule was dissolved in a mixture of methanol and water, and was then irradiated for 90 min with light from a mercury lamp, which emits light with a wavelength of approximately 250 nm. […] After a further 90 min, there was approximately 20% starting material remaining. […] The peak at 5 mins may be due to the diol being released.

DNA polymerase [3] = experiment: Primer extension reaction analysed by PAGE gel; conditions: incubated at 40° C.; compared with the positive control reaction
Description: Competitor oligos, complementary to the templates were also designed to aid gel analysis of a single stranded product. Primer extension reactions were conducted using the following reaction mix:
Following incubated at 40° C. in a hot block reactions were terminated by the addition of a ‘stop buffer’ containing chelators to inhibit polymerase activity in addition to formamide and competitor oligo to encourage denaturation of the double stranded DNA duplex for electrophoresis.

DNA polymerase [4] = experiment: Real-time primer extension analysis (Rotorgene Q, SYBR Safe) with melt analysis; type: biochemical; conditions: single SC-TTP incorporation, compared with standard dNTPs; FIG. 3A
Source text: As specified the linker chain can play an important role, at least in some embodiments, in enabling the nucleotide to remain a polymerase substrate, as such any modified nucleotides have to be shown to be biologically active. In order to exemplify this and as an example of certain embodiments, a polymerase reaction mix may be used for real-time primer extension analysis with Rotor Template, which requires the incorporation of a single SC-TTP nucleotide followed by a sequence of 44 dCTP, dGTP, dATP nucleotides.
Primer extension reactions were monitored using the Rotorgene Q Real-time thermocycler, this allows primer extension to be monitored fluorescently using a dsDNA intercalator (SYBR Safe) with secondary melt analysis to provide further information on product composition. This method can be used with an oligonucleotide primer/template pair designed to allow complete extension of the primer with the incorporation of a single SC-TTP nucleotide. Initially, the experiment was be conducted with a 40° C. incubation and then repeated with a 65° C. incubation (optimum synthesis temperature for most commercial DNA Polymerases). Control reactions with standard dNTPs (positive control) and no dNTPs (negative control) were included, alongside a control(s) for mis-incorporation.

Structure (SMILES): CCN1/C(=C/C=C/C2=[N+](CCCCCC(=O)NCC#Cc3cn(C4CC(O)C(COP(=O)([O-])OP(=O)([O-])OP(=O)([O-])[O-])O4)c(=O)nc3N)c3cc(S(=O)(=O)O)ccc3C2(C)C)C(C)(C)c2ccc(S(=O)(=O)[O-])cc21.[Li+].[Li+].[Li+].[Li+] (centres unmarked) [Cy3 labelled dCTP]
- fluorescence of printed array post-sequencing and wash steps (DNA polymerase [1]): very weak fluorescence

- starting material remaining (LCMS) ([2]; after a further 90 min irradiation): approximately 20%
- consumption of the starting material (LCMS) ([2]; irradiated for 90 min): 50%
Structure (SMILES): COC(COCc1ccccc1)NC(=O)OCc1cc2ccccc2cc1O (centres unmarked) [(3-Hydroxynaphthalen-2-yl)methyl (2-(benzyloxy)-1-methoxyethyl)carbamate]

Structure (SMILES): [N-]=[N+]=NC(COc1cccc(C(=O)NCCNC(=O)c2cc(C(=O)O)cc(C(=O)O)c2)c1)OCCOCC(=O)NCC#Cc1cn([C@H]2C[C@H](O)[C@@H](COP(=O)(O)OP(=O)(O)OP(=O)(O)O)O2)c(=O)[nH]c1=O (some centres unmarked) [SC-TTP, Penta-Triethylammonium Cleavable SCTTP]
- band shift on gel after primer extension (DNA polymerase [3]): larger shift
- maximum fluorescence intensity associated with incorporation (primer extension) (DNA polymerase [4]): slightly reduced

Reference: US11180523B2, “Design, synthesis and use of synthetic nucleotides comprising charge mass tags” (QuantuMDx Group Limited, priority 2016, dated 2021)
